The values that follow come from patent US20010051631A1, “Tricyclic compounds, their production and use” (priority 1994, published 2001).

The subject of this test is Hs68 cells. As to the kind of experiment: PDGF-induced proliferation in Hs68 cells (3H-thymidine uptake). It counts as cell-based, Human. The conditions noted are these: Hs68, PDGF-BB 5 ng/ml, concentration 1 × 10^−6 M. Here is the method: Method: Human skin fibroblasts (Hs68, Institute for Fermentation, Osaka) were seeded in 48-well plates precoated with collagen type I (Falcon) (25000 cells/well), and cultured for one day. Then, the cells were cultured in Dulbecco's modified Eagle's medium (high glucose) containing 0.1% bovine serum albumin for 48 hours. Fifteen (15) minutes after the addition of the drug, the cells were stimulated with 5 ng/ml of PDGF-BB (Becton Dickinson Labware) containing 3H-thymidine (final concentration 0.4 mCi/ml) (Amersham). After 24 hours, the reaction was stopped with 7.5% trichloroacetic acid at 4° C. and the plate was allowed to stand at 4° C. for 30 minutes. The cells were washed with Ca^2+- and Mg^2-free phosphate-buffered saline (PBS), after then 0.1% sodium dodecyl sulfate (SDS)/0.4N NaOH was added and the plate was allowed to stand at 37° C. for 1 hour to lyze the cells. The whole content of each well was taken in a vial and neutralized with 1N HCl, and then toluene scintillator (Wako Pure Chemical Ind.) was added to each vial. After stirring, the amount of ^3H-thymidine incorporated in the cells was determined with a liquid scintillation counter. The cellular uptake of ^3H-thymidine was used as an indicator of cell proliferation. The effect of the drug on the PDGF-BB (5 ng/ml) uptake of ^3H-thymidine was expressed as % inhibition.

For `O=C1c2cnc3cccc(n23)CN1CCC1CCN(S(=O)(=O)C(F)(F)F)CC1` [86 (ii), 4,5-dihydro-4-[2-(1-trifluoromethane-sulfonylpiperidin-4-yl)ethan-1-yl]-3H-1,4,8b-triazaace-naphthylen-3-one], the “% Inhibition of cell proliferation (3H-thymidine uptake)” value is listed as 96.6%.
